In US20050143291A1, “Methods and compositions for modulating apoptosis” (priority 2003, published 2005):

Assays:
[1] = tested on: caspase-7; experiment: Caspase-7 activation in etoposide-treated CHO cells (Western blot); format: cell-based, Chinese hamster; details: 100 μM etoposide for 6 h, harvested after 24 h
Experimental: FIG. 5, Panel A depicts the effect of GRP78 overexpression on topoisomerase II expression and caspase-7 activation. Total protein lysates were prepared from non-treated (Ctrl) or etoposide-treated (Etop) CHO and C.1 cells.
Among the executor caspases, caspase-7 has been reported to be associated with the ER. Upon induction of apoptosis, procaspase-7 (35 kDa) is first converted into a 32-kDa intermediate, which is further processed into active 20- and 11-kDa subunits. […] Upon longer exposure of the autoradiogram, the active 20- and 11-kDa forms were evident in the etoposide-treated cells. When GRP78 was overexpressed, a low level of caspase-7 activation was detected in both the non-treated and etoposide-treated cells. […] In addition, upon addition of cytochrome c, caspase-7 activation was higher in CHO cells than C.1 cells, as evidenced by the increase in the active 20- and 11-kDa forms in the CHO samples compared with the C.1 samples.
The cells were suspended in 5 volumes of a hypotonic buffer (5 mM Tris-HCl, pH 7.4, 5 mM KCl, 1.5 mM MgCl2, 0.1 mM EGTA, pH 8.0, and 1 mM dithiothreitol) in the presence of 2 μg/ml leupeptin, pepstatin, and aprotinin protease inhibitors. After incubation on ice for 20 min, sucrose was added to a final concentration of 250 mM, and the cells were disrupted by douncing eight times in a 1-ml Wheaton Dounce homogenizer. […]

[2] = tested on: T24/83-GRP78 cells; experiment: Clonogenic survival assays, T24/83 cells overexpressing GRP78; format: cell-based, human; details: versus T24/83-pcDNA cells
Experimental: (§1) Clonogenic Survival Assays—Four thousand cells were seeded into 10-cm-diameter dishes. […] After drug treatment, the cells were grown in fresh medium for 10 to 14 days. The colonies were washed with ice-cold PBS, fixed with methanol, and stained with 10% Giemsa staining solution. The surviving fraction was determined by dividing the number of the surviving colonies in the drug-treated cells by the number of colonies in the non-treated control groups.

[3] = tested on: CHO cells; experiment: Annexin V staining and FACS analysis, CHO cells; format: cell-based, Chinese hamster; details: 30 μM etoposide for 6 h
Text: (§2) FIG. 3, Panel A depicts GRP78 overexpression protecting cells from etoposide-induced apoptosis. […] Viable cells are those with low annexin or no annexin and PI staining (lower left panel). Early stage apoptotic cells are represented by high annexin and low PI staining (lower right panel), later stage apoptotic cells represented by high annexin and high PI staining (upper right panel), and necrosis is represented by cells with high PI and low annexin staining (upper left panel).
(§3) Annexin V Staining and FACS Analysis—CHO, C.1, and T24/83 cells were trypsinized, washed twice with ice-cold PBS, pH 7.4, and resuspended in […] binding buffer (10 mM HEPES, pH 7.4, 140 mM NaCl, 2.5 mM CaCl2 at a concentration of 1×10^6 cells/ml. One hundred μl of cell suspension was transferred to 5-ml plastic tubes, and 5 μl of annexin V-fluorescein isothiocyanate (PharMingen) and 4 μl of 0.5 mg/ml PI were added. The cells were gently vortexed and incubated in the dark at room temperature for 20 min. Four hundred μl of binding buffer was added to each tube, and annexin V staining was analyzed by flow cytometry within 1 h. Cells negative for both PI and annexin V staining are live cells, annexin V positive staining cells are early apoptotic cells, and PI positive and annexin V positive staining cells are primarily cells in late stages of apoptosis.
(§4) The apoptotic cells were identified by annexin V labeling.

[4] = tested on: T24/83-pcDNA cells; experiment: Annexin V staining and FACS analysis, T24/83-pcDNA cells; format: cell-based, human; details: versus non-treated
Experimental: as §3
(§5) A pair of stably transfected human transitional bladder carcinoma T24/83 cell lines selected and cultured under identical conditions, were used to determine the effect of GRP overexpression on neoplastic cells. The cell line, referred to as T24/83-GRP78, overexpressed human GRP78, and the other line, referred to as T24/83-pcDNA, was stably transfected with the empty expression vector pcDNA (28).

[5] = tested on: GRP78 Overexpression cells; experiment: % Survival (Colony Assay), GRP78 overexpression; format: cell-based; details: for % Survival (Colony Assay): GRP78 Overexpression
Experimental: (§6) Experiments were also performed to determine the anti-apoptotic effect conferred by overexpression of GRP78. This task was completed.
as §1

[6] = tested on: endogenous GRP78; experiment: Immunoblot of endogenous GRP78 in MDA-MB-435 cells infected with 320 bp AS adenovirus, with or without etoposide; format: cell-based, human; details: mock-infected, etoposide treatment by itself
Experimental: The same cells were infected with the GFP negative control adenovirus. […] Thus, both the full length and the 320 bp version of the AS construct targeted against GRP78 blocked expression of GRP78 in a 293T test system.
Western Blotting—The cell lysate was prepared in radioimmune precipitation assay buffer and subjected to immunoblot with antibodies against GRP78, GRP94, topoisomerase II, caspase-7, and α-actin as described. Nitrocellulose membranes containing the transferred proteins were blocked in Tris-buffered saline containing 5% non-fat dry milk and 0.1% Tween 20 for 1 h at room temperature and were probed with the respective primary antibodies. For GRP78, an anti-KDEL mouse monoclonal antibody (SPA-827), an anti-GRP78 rabbit polyclonal antibody directed against the carboxyl ten amino acids of rat GRP78 (SPA-826) (StressGen, Victoria, Canada), or an anti-hamster GRP78 rabbit polyclonal antibody at 1:3000, 1:2000, and 1:5000 dilution, respectively, was used. […]

[7] = tested on: T24/83-GRP78 cells; experiment: Annexin V staining and FACS analysis, T24/83-GRP78 cells; format: cell-based, human; details: versus non-treated
Experimental: as §3, §5

[8] = tested on: Control cells; experiment: % Survival (Colony Assay), control cells; format: cell-based
Experimental: as §6, §1

[9] = tested on: C.1 cells (CHO derivative overexpressing GRP78); experiment: Annexin V staining and FACS analysis, C.1 cells; format: cell-based, Chinese hamster; details: 30 μM etoposide for 6 h
Text: as §2, §3, §4

[10] = tested on: CHO cells; experiment: DNA fragmentation assay, CHO cells; format: cell-based, Chinese hamster; details: etoposide-treated CHO cells, compared with C.1 cells; 100 μM for 12 h, harvested after 48 h
Experimental: The DNA fragmentation assays were performed using an apoptosis DNA ladder kit (Roche Molecular Biochemicals) according to manufacturer's instructions.
as §4

In the case of `COc1cc([C@@H]2c3cc4c(cc3[C@@H](O[C@@H]3O[C@@H]5CO[C@@H](C)O[C@H]5[C@H](O)[C@H]3O)[C@H]3COC(=O)[C@H]23)OCO4)cc(OC)c1O` [Etoposide], the caspase-7 activation [1] is reported as “activation of caspase-7”, the “resistance of T24/83 cells overexpressing GRP78 (clonogenic survival)” value [2] is reported as “more resistance” and the “percentage of apoptotic cells (annexin V labeling) upon etoposide treatment” value ([3]; non-treated 9%) is reported as 90%. For the same molecule, the “increase of the percentage of apoptotic cells upon etoposide treatment” value ([3]; versus non-treated) was 10 fold, the “increase of the percentage of annexin V-labeled cells by etoposide treatment” value [4] was 2.7 fold and the “% Survival (Colony Assay)” value ([5]; etoposide 0.2 μM) was 93%. For the same molecule, the “% Survival (Colony Assay)” value ([5]; etoposide 0.4 μM) was 93%, the “% Survival (Colony Assay)” value ([5]; etoposide 0.8 μM) was 77% and the “% Survival (Colony Assay)” value ([5]; etoposide 1.6 μM) was 63%. For the same molecule, the “effect of GRP78 overexpression on sensitivity to the drug” value ([5]; GRP78 overexpression versus control) was “confers resistance”, the “reduction of the amount of endogenous GRP78” value [6] was “about 40%” and the “increase of the percentage of annexin V-labeled cells by etoposide treatment” value [7] was 1.4 fold. The “% Survival (Colony Assay)” value ([8]; etoposide 0.2 μM) was 71%, the “% Survival (Colony Assay)” value ([8]; etoposide 0.4 μM) was 67% and the “% Survival (Colony Assay)” value ([8]; etoposide 0.8 μM) was 26%. For the same molecule, the “% Survival (Colony Assay)” value ([8]; etoposide 1.6 μM) was 1.5%, the “percentage of apoptotic cells (annexin V labeling) upon etoposide treatment” value ([9]; non-treated 15%) was 70% and the “increase of the percentage of apoptotic cells upon etoposide treatment” value ([9]; versus non-treated) was 4.7 fold. For the same molecule, the DNA fragmentation [10] was “More extensive DNA fragmentation”.
